Laboratory results reported in patent US8604040B2 (priority 2010, dated 2013).
Where two headings read alike, the source gives them in different places. Marks after values point to notes of the source that are not given here.

Columns and labels:
[1] = log P by HPLC (EEC Directive 79/831 Annex V.A8); format: physicochemical
[2] = system: Phytophthora infestans; format: in vivo; conditions: protective, young tomato plants, active ingredient concentration 500 ppm, evaluation 7 days after inoculation
[3] = system: Plasmopara viticola; assay: Plasmopara test (grapevine) / protective; format: in vivo; conditions: young grapevine plants, active ingredient concentration 100 ppm, evaluation 6 days after inoculation
Experimental: Plasmopara Test (Grapevine)/Protective
Solvent: 24.5 parts by weight of acetone
• 24.5 parts by weight of dimethylacetamide Emulsifier: 1 part by weight of alkylaryl polyglycol ether
To prepare an appropriate active ingredient preparation, 1 part by weight of active ingredient is mixed with the stated amounts of solvent and emulsifier, and the concentrate is diluted with water to the desired concentration.
To test for protective efficacy, young plants are sprayed with the active ingredient preparation at the stated application rate. After the spray coating has dried on, the plants are inoculated with an aqueous spore suspension of Plasmopara viticola and then remain in an incubation cabin at approx. 20° C. and 100% relative atmospheric humidity for 1 day. Subsequently, the plants are placed in a greenhouse at approx. 21° C. and approx. 90% air humidity for 4 days. The plants are then moistened and placed into an incubation cabin for 1 day.
Evaluation follows 6 days after the inoculation. 0% means an efficacy which corresponds to that of the control, whereas an efficacy of 100% means that no infection is observed.

[4] = [b] LC-MS, acidic range, pH 2.7, 0.1% aqueous formic acid and acetonitrile
[5] = [c] LC-MS, neutral range, pH 7.8, 0.001 molar aqueous ammonium hydrogencarbonate and acetonitrile
[6] = HPLC, pH 2.7, given in the preparation examples, read-out: logP (pH2.7)
[7] = [a] HPLC, acidic range, pH 2.3, 0.1% aqueous phosphoric acid and acetonitrile

| Structure (SMILES) | log P [1, 4] | log P [1, 5] | efficacy [2] | log P [1, 7] | further results |
| --- | --- | --- | --- | --- | --- |
| Cc1cc(C(F)(F)F)nn1CC(=O)N1CCN(c2cccc(C(=O)N(C)Cc3ccccc3Br)n2)CC1 [Example 3] | 3.44 | 3.46 | 88% | – | – |
| Cc1cc(C(F)(F)F)nn1CC(=O)N1CCN(c2cccc(C(=O)OC3C=CCCC3)n2)CC1 (centres unmarked) [Example 68] | 3.67 | 3.7 | 94% | – | – |
| Cc1cc(C(F)(F)F)nn1CC(=O)N1CCN(c2cccc(C(=O)OC3CCCCC3)n2)CC1 [Example 69] | 3.96 | – | 71% | – | – |
| Cc1cc(C(F)(F)F)nn1CC(=O)N1CCN(c2cccc(C(=O)OC3CCCc4ccccc43)n2)CC1 (centres unmarked) [Example 70] | 4.19 | 4.2 | 97% | – | – |
| C=CCCCCOC(=O)c1cccc(N2CCN(C(=O)Cn3nc(C(F)(F)F)cc3C)CC2)n1 [Example 71] | – | 3.95 | 76% | – | – |
| Cc1cc(C(F)(F)F)nn1CC(=O)N1CCN(c2cccc(C(=O)OCc3ccccc3F)n2)CC1 [Example 73] | 3.58 | 3.6 | 71% | – | – |
| Cc1cc(C(F)(F)F)nn1CC(=O)N1CCN(c2cccc(C(=O)Oc3cccc4ccccc34)n2)CC1 [Example 75] | 3.99 | 4 | 71% | – | – |
| O=C(OC1CCCc2ccccc21)c1cccc(N2CCN(C(=O)Cn3nc(C(F)F)cc3C(F)F)CC2)n1 (centres unmarked) [Example 117, 1,2,3,4-Tetrahydronaphthalen-1-yl 6-(4-{[3,5-bis(difluoromethyl)-1H-pyrazol-1-yl]-acetyl}piperazin-1-yl)pyridine-2-carboxylate] | – | – | 93% | – | chromatographic logP ([1]; HPLC (LC-MS), [c] LC-MS, neutral range, pH 7.8, 0.001 molar aqueous ammonium hydrogencarbonate and acetonitrile, read-out: log P): 4.07; chromatographic logP [1, 6]: 4.02; chromatographic logP ([1]; [a] HPLC, acidic range, pH 2.3, 0.1% aqueous phosphoric acid and acetonitrile, read-out: log P): 4.02; efficacy [3]: 93% |
| Cc1cc(C(F)(F)F)nn1CC(=O)N1CCN(c2cccc(C(=O)OCc3c(F)cc(F)cc3F)n2)CC1 [Example 118] | 3.68 | 3.71 | 93% | – | – |
| O=C(Sc1cccc2ccccc12)c1cccc(N2CCN(C(=O)Cn3nc(C(F)F)cc3C(F)F)CC2)n1 [Example 120] | – | 4.28 | 93% | 4.25 | – |
| O=C(Sc1cccs1)c1cccc(C2CCN(C(=O)Cn3nc(C(F)F)cc3C(F)F)CC2)n1 [Example 123] | – | 3.77 | 93% | 3.76 | – |
| O=C(OCc1ccccc1F)c1cccc(N2CCN(C(=O)Cn3nc(C(F)F)cc3C(F)F)CC2)n1 [Example 137] | – | 3.49 | 93% | 3.47 | – |
| O=C(OCc1c(F)cccc1F)c1cccc(N2CCN(C(=O)Cn3nc(C(F)F)cc3C(F)F)CC2)n1 [Example 138] | – | 3.43^[a]; 3.43^[c] | 93% | 3.43^[a]; 3.43^[c] | – |
| O=C(OC1CCCCC1)c1cccc(N2CCN(C(=O)Cn3nc(C(F)F)cc3C(F)F)CC2)n1 [Example 140] | – | 3.86 | 93% | 3.83 | efficacy [3]: 71% |
| O=C(Oc1cccc2ccccc12)c1cccc(N2CCN(C(=O)Cn3nc(C(F)F)cc3C(F)F)CC2)n1 [Example 141] | – | 3.88^[c] | 71% | – | – |
| O=C(OC1C=CCCC1)c1cccc(N2CCN(C(=O)Cn3nc(C(F)F)cc3C(F)F)CC2)n1 (centres unmarked) [Example 142] | – | 3.6 | 83% | 3.56 | – |
| CN(C(=O)c1cccc(N2CCN(C(=O)Cn3nc(C(F)F)cc3C(F)F)CC2)n1)C1CCCc2ccccc21 (centres unmarked) [Example 143] | – | 3.45 | 71% | 3.42 | – |
| O=C(NCc1ccc(Cl)cc1Cl)c1cccc(N2CCN(C(=O)Cn3nc(C(F)F)cc3C(F)F)CC2)n1 [Example 144] | – | 3.7 | – | 3.68 | – |
| Cc1ccccc1CSC(=O)c1cccc(N2CCN(C(=O)Cn3nc(C(F)(F)F)cc3C)CC2)n1 [Example 145] | 4.52 | 4.55 | – | – | – |
| O=C(NCc1ccccc1Cl)c1cccc(N2CCN(C(=O)Cn3nc(C(F)F)cc3C(F)F)CC2)n1 [Example 146] | – | 3.26 | – | 3.24 | – |
| Cc1cc(C(F)(F)F)nn1CC(=O)N1CCN(c2cccc(C(=O)N(C)C3CCCc4ccccc43)n2)CC1 (centres unmarked) [Example 147] | 3.55 | 3.59 | – | – | – |
| CN(Cc1ccccc1Cl)C(=O)c1cccc(N2CCN(C(=O)Cn3nc(C(F)F)cc3C(F)F)CC2)n1 [Example 148] | – | 3.25 | – | 3.22 | – |
| Cc1cc(C(F)(F)F)nn1CC(=O)N1CCN(c2cccc(C(=O)SCc3c(F)cccc3F)n2)CC1 [Example 149] | 4.11 | 4.29 | – | – | – |
| CC(C)(C)OC(=O)N1CCC(O)(c2cccc(Br)n2)CC1 [tert-Butyl 4-(6-bromopyridin-2-yl)-4-hydroxypiperidine-1-carboxylate] | – | – | – | – | chromatographic logP [1, 6]: 3.05 |
| CC(C)(C)OC(=O)N1CCN(c2cccc(Br)n2)CC1 [tert-Butyl 4-(6-bromopyridin-2-yl)piperazine-1-carboxylate] | – | – | – | – | chromatographic logP [1, 6]: 4.08 |
| CCOC(=O)c1cccc(N2CCN(C(=O)OC(C)(C)C)CC2)n1 [tert-Butyl 4-[6-(ethoxycarbonyl)pyridin-2-yl]piperazine-1-carboxylate] | – | – | – | – | chromatographic logP [1, 6]: 3.32 |
| CC(C)(C)OC(=O)N1CC=C(c2cccc(Br)n2)CC1 [tert-Butyl 6-bromo-3′,6′-dihydro-2,4′-bipyridine-1′(2′H)-carboxylate] | – | – | – | – | chromatographic logP [1, 6]: 4.14 |
| CN(C(=O)c1cccc(C2CCN(C(=O)OC(C)(C)C)CC2)n1)C1CCCc2ccccc21 (centres unmarked) [tert-butyl 4-{6-[methyl(1,2,3,4-tetrahydronaphthalen-1-yl)carbamoyl]pyridin-2-yl}piperidine-1-carboxylate] | – | – | – | – | chromatographic logP [1, 6]: 5.09 |
